Results reported in ChEMBL document CHEMBL1201862, “PubChem BioAssay data set” (2004).
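Compound exposure: 48 hours, 5 concentrations, 96-well plates. GI50 = concentration required for 50% inhibition of growth.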 The source made the active and inactive calls. Rule as the data show it: active = GI50 up to about 1.1 µM and inactive = higher.

Legend:
Assay in all cases: NCI-60 cell line screen, 48 h
[1] = system: NCI-H522
[2] = system: OVCAR-8
[3] = system: HCC 2998
[4] = system: UACC-62
[5] = system: RXF 393
[6] = system: EKVX
[7] = system: SW-620
[8] = system: CCRF-CEM
[9] = system: HOP-92
[10] = system: SK-MEL-28
[11] = system: OVCAR-3
[12] = system: MOLT-4
[13] = system: SF-295
[14] = system: NCI-H460
[15] = system: LOX IMVI
[16] = system: SN12C
[17] = system: U-251
[18] = system: OVCAR-5

Measured: GI50

COC(=O)C(C(=O)Cc1ccccc1[N+](=O)[O-])C(=O)OC
inactive: [1] > 100 µM | [2] > 100 µM | [3] > 100 µM | [4] > 100 µM | [5] > 100 µM | [6] > 100 µM | [7] > 100 µM | [8] 74.6 µM | [9] > 100 µM | [10] > 100 µM | [11] > 100 µM | [12] > 100 µM | [13] 42.2 µM | [14] > 100 µM | [15] > 100 µM | [16] > 100 µM

Cc1c(N)c(C#N)c2n(C)c3ncccc3n2c1=O
inactive: [1] > 100 µM | [2] > 100 µM | [3] > 100 µM | [4] > 100 µM | [5] > 100 µM | [6] > 100 µM | [7] > 100 µM | [8] > 100 µM | [9] > 100 µM | [10] > 100 µM | [11] > 100 µM | [17] > 100 µM | [12] > 100 µM | [13] > 100 µM | [14] > 100 µM | [15] > 100 µM | [16] > 100 µM

COC(=O)C1=CC2C(=O)OC1CC2C#N (stereo not drawn)
inactive: [1] > 100 µM | [2] > 100 µM | [3] > 100 µM | [4] > 100 µM | [7] > 100 µM | [8] > 100 µM | [9] > 100 µM | [10] > 100 µM | [11] > 100 µM | [17] > 100 µM | [12] > 100 µM | [13] > 100 µM | [14] > 100 µM | [15] > 100 µM | [16] > 100 µM

C=C1CC(CC(=O)C(C)CC2CC(=C)C(=O)O2)OC1=O (stereo not drawn)
inactive: [2] 28 µM | [3] 37.1 µM | [4] 15.8 µM | [5] 18.7 µM | [6] 52.2 µM | [7] 11 µM | [8] 6.3 µM | [9] 17.7 µM | [10] 15.8 µM | [11] 17.7 µM | [17] 71.4 µM | [12] 11.5 µM | [13] > 100 µM | [14] 32.1 µM | [18] 65.9 µM | [15] 15.6 µM | [16] 16.7 µM

NC(=S)N/N=C/C(=C/Nc1ccccc1)[N+](=O)[O-]
inactive: [1] > 100 µM | [2] > 100 µM | [4] > 100 µM | [5] > 100 µM | [6] > 100 µM | [7] > 100 µM | [8] > 100 µM | [9] > 100 µM | [10] > 100 µM | [11] > 100 µM | [13] > 100 µM | [18] > 100 µM | [15] > 100 µM | [16] > 100 µM

CC(C)NCCCC(C)Nc1ccnc2ccc3nn(C)nc3c12 (stereo not drawn)
inactive: [1] > 100 µM | [2] 43.6 µM | [3] 57.9 µM | [4] > 100 µM | [6] > 100 µM | [7] 38.5 µM | [8] 41.9 µM | [17] > 100 µM | [12] 35 µM | [13] 34.6 µM | [14] 38.6 µM | [18] 75.7 µM | [15] 33.6 µM | [16] 61.8 µM

c1cncc(C2c3[nH]c4ccccc4c3CCN2CCCN2CCCCC2)c1 (stereo not drawn)
inactive: [1] > 100 µM | [2] > 100 µM | [3] > 100 µM | [4] 92.9 µM | [5] 53.6 µM | [6] > 100 µM | [7] > 100 µM | [9] > 100 µM | [10] 20.3 µM | [11] 51.1 µM | [17] > 100 µM | [12] > 100 µM | [13] > 100 µM | [14] > 100 µM | [18] > 100 µM | [15] > 100 µM | [16] > 100 µM

CCCCCCCC(=O)OCC1OC(n2cc(F)c(=O)[nH]c2=O)C(NC(=O)OCc2ccccc2)C(O)C1O (stereo not drawn)
inactive: [1] 26.2 µM | [2] > 100 µM | [3] 19.5 µM | [4] 32.1 µM | [5] > 100 µM | [6] > 100 µM | [7] > 100 µM | [8] 26.5 µM | [9] 23.8 µM | [10] > 100 µM | [11] > 100 µM | [17] 80.2 µM | [12] 27.9 µM | [13] > 100 µM | [14] > 100 µM | [15] 37.1 µM | [16] 32.9 µM

O=C1c2ccccc2C(=O)c2[nH]c(Cc3ccc(F)cc3)nc21
inactive: [1] 14.5 µM | [2] 17.4 µM | [3] 26.2 µM | [4] 15.5 µM | [5] 6.97 µM | [6] 19.2 µM | [7] 14.5 µM | [8] 24.6 µM | [9] 19.9 µM | [10] 18.7 µM | [11] 5.4 µM | [17] 22.6 µM | [12] 24.8 µM | [13] 16.7 µM | [14] 15.2 µM | [16] 22 µM
